According to the supplement of paper PMC2824726:
Where “and” joins values, the source holds several entries; their conditions need not be identical. Equal values may be shown once.

system: MDA-MB-231; experiment: shRNA barcode abundance ratio t_end/t_zero (depletion over 4 weeks of proliferation) (log2 ratio); higher = less depletion (weaker anti-proliferative effect of the shRNA); conditions: time after t zero 28 days
Protocol: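 Pooled lentiviral negative-selection screen of 305 pGIPZ shRNAs (Open Biosystems V2LHS clones; the 21-nt half-hairpin sense stem is embedded in a mir-30 scaffold) in MDA-MB-231 breast carcinoma cells, infected at MOI 0.3 with 0.5 ug/ml puromycin selection. Barcode abundance was read on barcode tiling microarrays (six 25-nt probes per 60-nt barcode) at t_zero (5 days post-infection) and t_end (33 days; 28 days of culture after t_zero). Values are median-normalised t_end/t_zero signal ratios, averaged over the tiling probes that passed a 10-fold background filter, from three biological replicates.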

Sequence | shRNA barcode abundance ratio t end/t zero (log2)
CCAACTAATCTTCGAATCGAA (targeted gene: SOCS2) | 0.157
CGAACTCCTCTTCTCAGTTAA (targeted gene: IGF1R) | 0.302
GCAGCTTCAGGTTTACTCAAA (targeted gene: CD28) | 0.127
GCAGCTTCCTTGAACCATTAT (targeted gene: SPHK1) | -0.397
GCAGATTCGTTCAGAGTCTAA (targeted gene: BIRC3) | 0.154
GCAATTGAGAGCATTCTTAAA (targeted gene: IL3) | -0.0688
GCGTGCCATGACAAAGGATAA (targeted gene: HSPA8) | -0.885
GCATGTTATGTTGTTCTTATT (targeted gene: XIAP) | 0.25
GGAGAAATTATTGATCCAAAT (targeted gene: NAIP) | 0.608
CCAGAATCTCTGGGAATATAA (targeted gene: BFAR) | -0.109
CCTCCGTCCCTCCTACCATAA (targeted gene: MYBL2) | 0.0727
GGCATTAGTTTCTCAGTTAAA (targeted gene: MLH1) | 0.141
CCGCAAAGAATCAAGTTGCAA (targeted gene: HSPA8) | -0.446
GCGCCGAAATTGCAGGTTTAT (targeted gene: BIRC8) | -0.37
GCTGAAGTACAGGACAATTAT (targeted gene: TAX1BP1) | 0.181
TGGGAAGAACTTTAAGGATAT (targeted gene: SORT1) | -0.167
GCTATCTCTCCTGAAGCAATA (targeted gene: BCL2A1) | 0.264
CCAAATTATGTGTTTCCGAAA (targeted gene: IGF1R) | 0.502
TACTGTCTTTGAGAACTATAT (targeted gene: RHOC) | 0.0813
ACCTGCAGAATAATAAAGTCA (targeted gene: S100A8) | -0.295
CCTAGAAGCATTTATGATTTA (targeted gene: BCL2L2) | 0.344
CCTTTCTCCAAACCCTCTTAA (targeted gene: BIRC2) | 0.28
GCGTTTAAGGTGAGCATAAAT (targeted gene: CYP1B1) | -0.142

Sequence | shRNA barcode abundance ratio t end/t zero (log2)
GGGAGGTAAATCAACATATAT (targeted gene: MSH2) | 0.109
GGTGAAGATATATTCCTCCAA (targeted gene: PTEN) | 0.129
CGCCAGCACCGGAGGAAGAAA (targeted gene: CDKN2A) | -0.0357
CCAGATTTCTTACCTACCATA (targeted gene: BIRC2) | 0.213
GCTCACTCTTCAGTCGGAAAT (targeted gene: BCL2L1) | -0.368
GCTCAGTGAGCCCATGGAATT (targeted gene: RELA) | 0.332
GGGAATCCAGTGTGTGAAGAA (targeted gene: RELA) | 0.121
CCAAGTAGACTCACTCCTTAA (targeted gene: BAG4) | -0.102
GGACTCTCTTCTAGAGCCATA (targeted gene: BCL2L2) | 0.635
CCCGGGACTCCTGAGAACAAT (targeted gene: PRLR) | -0.387
GCAGATTCAAGTCAATCTGAA (targeted gene: NFIA) | 0.355
GCGCACAGGCTTTATCGAGAA (targeted gene: IGFBP3) | -0.0187
GGTAGCAATTGCCTGAATAAT (targeted gene: IL7) | -0.149
CGGTTTGCTGAGGAGAAAGAA (targeted gene: AVEN) | 0.241
CCTCACCCTGTACCAGTCCAA (targeted gene: GSTP1) | -0.648
GCCTACTTTCACACTAAGAAA (targeted gene: CASP8) | -0.242
GCGGTTCTTAGAAGAGTACTT (targeted gene: DAD1) | -0.432
TCTGAGGAAGAGATCATCAAA (targeted gene: PEA15) | -0.849
GGATAGACTGGTCTAGAATAA (targeted gene: RALBP1) | 0.174
GGAGTGAGATTGATCTGTTTA (targeted gene: ANXA5) | -0.0616
GCACCTTGTTGTCATGAACTT (targeted gene: DAD1) | 0.0822 and 0.0853
CAGCTTTCAGTCAGATGTATA (targeted gene: BRAF) | 0.489
CCTGGGCATTCTTGTTTCAAT (targeted gene: IL1A) | -0.328

Sequence | shRNA barcode abundance ratio t end/t zero (log2)
CCTGACCTCCCTCTAATTTAT (targeted gene: IL10) | 0.309
GCAAGCAGTCTTGTGAGTTAA (targeted gene: RASA1) | -0.169 and -0.167
GCTTAGAACTTTAAGCAACAA (targeted gene: TNF) | -1.56
CCTTGGAAAGGATGAACAAAT (targeted gene: TOPORS) | 0.154
GCAAATTTCATGACCAGTAAA (targeted gene: TDGF1) | -0.234
TCCAATTAACTTCTCCATAAT (targeted gene: MTL5) | 0.712
CGGTATTAAGTTGTAATTTAA (targeted gene: PROK2) | 0.137
GGAGAGAACTGTCATTTCTAA (targeted gene: IGF1R) | 0.393
GCATGTAATAGAGTGTGCTAA (targeted gene: MSH2) | 1.01
GCGAAGAACCTTGTGTGACAA (targeted gene: BCL2) | -0.0784
GCTGCTTCTGTCTGGTTTATT (targeted gene: THY1) | -0.0341
GCCTATATCAGCAATTGTCAT (targeted gene: ATM) | -0.178
CCTCAGTGTCTGTTGAAGTAA (targeted gene: BIRC6) | -0.238
GCATCATGCCTTCTGAATAAA (targeted gene: CLN3) | 0.486
GGCCTTGGAACTGATGAAGAT (targeted gene: ANXA1) | 0.259
TCACAGAGCTTTGTAAGCAAA (targeted gene: NME5) | 0.139
CGACTTAGACTTGACCTATAT (targeted gene: PTEN) | -0.304
GGCAGCTTCCTTGAACCATTA (targeted gene: SPHK1) | -0.334
CCAGTGACCTTCGCTCCACAT (targeted gene: BAD) | 0.391
GCTCTGTACTTCAACCCAATT (targeted gene: BFAR) | 0.0174
GCATCAGATGATTTGTCATTA (targeted gene: BIRC2) | 0.0467 and 0.133
GGATGCTTCTGAATAGAAATA (targeted gene: BIRC7) | 0.0929
